Data as given in patent US6846660B2, “Method of making an aldehyde dehydrogenase with gluconobacter” (Roche Vitamins Inc., priority 1997, dated 2005).

What follows are compounds tested against T1, aldehyde dehydrogenase (ADH) (Ketogulonicigenium vulgare, UniProt Q402A8) (assay: not given). Details: not given.
T1 sequence (Q402A8 32-609): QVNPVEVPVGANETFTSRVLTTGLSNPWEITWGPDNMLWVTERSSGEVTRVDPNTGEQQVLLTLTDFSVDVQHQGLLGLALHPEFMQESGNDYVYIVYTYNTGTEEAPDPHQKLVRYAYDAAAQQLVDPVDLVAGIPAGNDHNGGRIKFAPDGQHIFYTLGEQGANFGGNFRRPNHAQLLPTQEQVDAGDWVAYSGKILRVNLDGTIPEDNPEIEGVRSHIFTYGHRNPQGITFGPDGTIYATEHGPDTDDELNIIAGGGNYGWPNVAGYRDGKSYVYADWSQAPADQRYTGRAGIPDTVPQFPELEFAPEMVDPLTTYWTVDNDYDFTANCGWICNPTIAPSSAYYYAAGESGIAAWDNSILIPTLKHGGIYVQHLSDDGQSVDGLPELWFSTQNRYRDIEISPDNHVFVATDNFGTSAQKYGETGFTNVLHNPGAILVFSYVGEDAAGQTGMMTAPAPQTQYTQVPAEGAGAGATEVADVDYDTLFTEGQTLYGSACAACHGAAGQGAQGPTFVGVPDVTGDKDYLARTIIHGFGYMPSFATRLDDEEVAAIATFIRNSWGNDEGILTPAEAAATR
Assay type: biochemical, Gluconobacter oxydans DSM No. 4025 (FERM BP-3812)
Experimental: The reaction was started at 25° C. with L-sorbosone, and the enzyme activity was measured as the initial reduction rate of DCIP at 600 nm. […] The extinction coefficience of DCIP at pH 8.0 was taken as 15 mM^−1. A reference cuvette contained all the above constituents except L-sorbosone.
The effects of metal ions and inhibitors on the activity of the enzyme were examined by measuring the activity using the same assay method as described under 1) above. Each compound solution was stirred into the basal reaction mixture and the reaction was started with the addition of the enzyme.

Compound	Relative activity [%]	stimulation of enzyme activity	effect on enzyme activity (in words)
O.O.[Ca+2].[Cl-].[Cl-] [CaCl2.2H2O]	204.5	about 2 fold	
O.O.O.O.O.O.[Cl-].[Cl-].[Co+2] [CoCl2.6H2O]	76.0		inhibited the enzyme activity
O=S(=O)([O-])[O-].[Cu+2] [CuSO4]	0.0		inhibited the enzyme activity
O=S(=O)([O-])[O-].O=S(=O)([O-])[O-].O=S(=O)([O-])[O-].[Fe+3].[Fe+3] [Fe2(SO4)3.xH2O]	58.9		inhibited the enzyme activity
[Cl-].[Cl-].[Mg+2] [MgCl2]	90.3		
O=C(O)CI [Monoiodoacetate]	52.2		
[F-].[Na+] [NaF]	86.7		
[N-]=[N+]=[N-].[Na+] [NaN3]	104.6		
O.O.O.O.O.O.O=S(=O)([O-])[O-].[Ni+2] [NiSO4.6H2O]	74.9		inhibited the enzyme activity
[Cl][Ti]([Cl])([Cl])[Cl] [TiCl4]	128.0		
[Cl-].[Cl-].[Zn+2] [ZnCl2]	40.3		inhibited the enzyme activity

Same assay, conditions: compound at 1.0 mM; None = 100.0

Compound	Relative activity [%]
CCN1C(=O)C=CC1=O [N-Ethylmaleimide]	110.8

The compounds below were run against T1, aldehyde dehydrogenase (ADH) (assay: Prosthetic group: PQQ requirement of the purified enzyme). Details: added to basal reaction mixture without PQQ.
Assay type: biochemical, Gluconobacter oxydans DSM No. 4025 (FERM BP-3812)

Compound	effect of cofactor addition on enzyme activity
O=C(O)c1cc(C(=O)O)c2c(n1)C(=O)C(=O)c1cc(C(=O)O)[nH]c1-2 [PQQ, pyrroloquinoline quinone]	restored

Each compound was assayed against T1, aldehyde dehydrogenase (ADH) (assay: Identification of the oxidation products). Details: not given.
Assay type: biochemical, Gluconobacter oxydans DSM No. 4025 (FERM BP-3812)
Experimental: The reaction mixture containing the purified enzyme (1.56 mg), L-sorbosone (0.142 mg), PMS (0.008 mg) and PQQ (0.3 mg) in 40μl of the buffer was incubated for 1.5 hours at 30° C. The reaction product was analyzed on thin layer chromatography and HPLC. As a result, the reaction product was identified as 2-KGA in comparison with an authentic sample of 2-KGA.

Compound	Product
O=C[C@H](O)[C@@H](O)[C@@H](O)[C@H](O)CO [D-Galactose]	D-Galactonic acid
O=C[C@@H](O)[C@@H](O)[C@H](O)[C@@H](O)CO [L-Gulose]	L-Gulonic acid

Same assay, conditions: products of the oxidation of the substrates of Table 1A

Compound	Product
O=C[C@@H](O)[C@H](O)[C@H](O)CO [D-Arabinose]	D-Arabonic acid
O=C[C@H](O)[C@@H](O)[C@H](O)[C@H](O)CO [D-Glucose]	D-Gluconate
O=CC(=O)[C@@H](O)[C@H](O)[C@H](O)CO [D-Glucosone]	2-Keto-D-gluconic acid
O=C[C@@H](O)[C@@H](O)[C@H](O)[C@H](O)CO [D-Mannose]	D-Mannoic acid
O=C[C@H](O)[C@H](O)[C@H](O)CO [D-Ribose]	D-Ribonic acid
O=C[C@H](O)[C@@H](O)[C@H](O)CO [D-Xylose]	D-Xylonic acid
O=CC(=O)[C@@H](O)[C@H](O)[C@@H](O)CO [L-Sorbosone]	2-KGA

Same assay, conditions: purified enzyme, PMS, PQQ, 1.5 hours at 30 °C; thin layer chromatography and HPLC

Compound	reaction product identified
O=CC(=O)[C@@H](O)[C@H](O)[C@@H](O)CO [L-Sorbosone]	2-KGA

These compounds were tested against T1, aldehyde dehydrogenase (ADH) (assay: Electron acceptor suitability for oxidation of L-sorbosone to 2-KGA). Details: not given.
Assay type: biochemical, Gluconobacter oxydans DSM No. 4025 (FERM BP-3812)
From the text: This was affirmed by the failure of the enzyme to convert L-sorbosone to 2-KGA using oxygen as a possible electron acceptor. Furthermore, no oxygen consumption was detected in the reaction mixture as detected with a dissolved oxygen probe. […] However, other conventional electron acceptors can be utilized in conjunction with the enzyme of this invention. DCIP, PMS, ferricyanide and cytochrome c are preferred electron acceptors. There is no minimum amount of electron acceptor which must be present for at least some of the aldehyde substrate to be converted to its corresponding acid. However, the amount of substrate which can be oxidized depends on the amount of the particular electron acceptor and its electron accepting characteristics.

Compound	suitability as electron acceptor
O=O [oxygen]	does not work

Same assay, conditions: oxidation of L-sorbosone to 2-KGA by purified ADH

Compound	suitability as electron acceptor
O=C1C=CC(=Nc2cc(Cl)c(O)c(Cl)c2)C=C1 [DCIP, 2,6-dichlorophenolindophenol]	oxidizes L-sorbosone to 2-KGA in the presence of electron acceptors
COS(=O)(=O)[O-].C[n+]1c2ccccc2nc2ccccc21 [PMS, phenazine methosulfate]	oxidizes L-sorbosone to 2-KGA in the presence of electron acceptors
cytochrome c	oxidizes L-sorbosone to 2-KGA in the presence of electron acceptors
nicotinamide adenine dinucleotide phosphate [NADP]	not suitable electron acceptors
